From PubChem BioAssay (NCI) come the findings set out here.

Where “and” joins values, the source holds several entries; their conditions need not be identical. Identical values can stand only once.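 Assay format: 96-well plates, 48-hour exposure. GI50 = concentration required for 50% inhibition of growth. Definition used: TGI = concentration required for complete inhibition of growth.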

Among the test systems are COLO 205 colon; EKVX NSCLC; HCC-2998 colon; HOP-62 NSCLC; MALME-3M melanoma; MCF7 breast; NCI-H460 lung; RPMI-8226 leukemia; TK-10 renal; U251 CNS.
Assay in all cases: NCI tumour cell line growth inhibition, 48 h

Turning to `CC(C)(C)C[C@H]1N[C@@H](C(=O)NC2CCC(O)CC2)[C@H](c2cccc(Cl)c2F)[C@@]12C(=O)Nc1cc(Cl)ccc12` (some centres undefined), the GI50 in the test on COLO 205 colon is 3.67 µM; with EKVX NSCLC, 3.15 µM; in the test with HCC-2998 colon it was 3.64 µM; in the test on HOP-62 NSCLC, 11.5 µM; in the test on MALME-3M melanoma, 131 nM; in the test with MCF7 breast, 228 nM. Also, the GI50 was 0.678 µM in the test on NCI-H460 lung, 2630 nM in the test on RPMI-8226 leukemia, 11.9 µM with TK-10 renal and 7.86 µM in the test with U251 CNS. For the same compound, the TGI came to 16 µM in the test with COLO 205 colon; 14.2 µM with EKVX NSCLC; 13.1 µM with HCC-2998 colon; 27.7 µM in the test with HOP-62 NSCLC; 3.98 µM in the test with MALME-3M melanoma; 2.98 µM in the test with MCF7 breast. In addition, the TGI with NCI-H460 lung stood at 13.4 µM; in the test with RPMI-8226 leukemia it was 8.41 µM; in the test on TK-10 renal, 25 µM; in the test with U251 CNS it was 21.9 µM.
With `COc1ccc(-n2cc(-c3ccc(OC)c(OC)c3)[nH]c2=O)cc1`, the GI50 was more than 100 µM with COLO 205 colon; more than 100 µM with EKVX NSCLC; more than 100 µM with HCC-2998 colon; more than 100 µM in the test on HOP-62 NSCLC; more than 100000 nM in the test on MALME-3M melanoma; more than 100000 nM with MCF7 breast. Also, the GI50 in the test on NCI-H460 lung is more than 100 µM; in the test with RPMI-8226 leukemia, more than 100000 nM; in the test on TK-10 renal, more than 100 µM; in the test on U251 CNS, more than 100 µM. Moreover, the TGI with COLO 205 colon, in the test with EKVX NSCLC, in the test on HCC-2998 colon, with HOP-62 NSCLC, in the test with MALME-3M melanoma and with MCF7 breast was more than 100 µM in each case. The TGI in the test on NCI-H460 lung, in the test on RPMI-8226 leukemia, with TK-10 renal and in the test on U251 CNS was more than 100 µM each time.
As to `CCCCCCCC(=O)OCC/C=C/C1OC1C1OC(=O)/C=C\C=C\C(=O)N(C(C)=O)C(=O)/C=C(/C)CCC2OC2C1OC(=O)NC(C)=O` (centres undefined), the GI50 in the test with COLO 205 colon was 3.27 µM; in the test on EKVX NSCLC it was more than 25 µM; in the test on HCC-2998 colon it was 7.35 µM; in the test with HOP-62 NSCLC, 7.45 µM; in the test on MALME-3M melanoma, more than 25000 nM; in the test with MCF7 breast, 1700 nM. Moreover, the GI50 with NCI-H460 lung is 11.4 µM; in the test with RPMI-8226 leukemia, 959 nM; in the test on TK-10 renal, 6.91 µM; in the test with U251 CNS, 5.54 µM. The TGI is 6.86 µM with COLO 205 colon; more than 25 µM in the test on EKVX NSCLC; 19.1 µM in the test with HCC-2998 colon; more than 25 µM with HOP-62 NSCLC; more than 25 µM with MALME-3M melanoma; 11.5 µM with MCF7 breast. The TGI in the test with NCI-H460 lung is more than 25 µM; in the test on RPMI-8226 leukemia, 4.03 µM; in the test on TK-10 renal it was 22.2 µM; in the test with U251 CNS, 15 µM.
With `Cn1c(COC(=O)NCCn2ccnc2)nc2c(N3CCOCC3)nc(-c3ccccc3)nc21`, the GI50 is 1.15 µM in the test on COLO 205 colon; 1.26 µM with EKVX NSCLC; 1.41 µM in the test on HCC-2998 colon; 1.54 µM with HOP-62 NSCLC; 1380 nM in the test with MALME-3M melanoma; 356 nM with MCF7 breast. Further, the GI50 in the test on NCI-H460 lung was 1.42 µM; in the test on RPMI-8226 leukemia, 222 nM; with TK-10 renal it was 1.07 µM; in the test with U251 CNS, 1.35 µM. Further, the TGI in the test with COLO 205 colon is 2.97 µM; in the test on EKVX NSCLC, 2.65 µM; with HCC-2998 colon, 2.9 µM; in the test on HOP-62 NSCLC it was 3.9 µM; in the test with MALME-3M melanoma, 2.72 µM; in the test with MCF7 breast it was 1.89 µM. Moreover, the TGI turned out to be 2.91 µM in the test on NCI-H460 lung, 1.05 µM in the test with RPMI-8226 leukemia, 2.41 µM in the test with TK-10 renal and 2.87 µM in the test on U251 CNS.
`C[C@@H]1C[C@@H]([C@H](O)CC2CC(=O)NC(=O)C2)C(=O)[C@@H](C)C1`: the GI50 was 0.224 µM with COLO 205 colon; 0.341 µM with EKVX NSCLC; 0.325 µM in the test on HCC-2998 colon; 0.26 µM in the test on HOP-62 NSCLC; 235 nM in the test with MALME-3M melanoma; 216 nM with MCF7 breast. The GI50 in the test with NCI-H460 lung was 0.234 µM; with RPMI-8226 leukemia, 451 nM; with TK-10 renal, 0.22 µM; in the test with U251 CNS it was 0.237 µM. Further, the TGI with COLO 205 colon is 2 µM and 1.47 µM; with EKVX NSCLC, 4.45 µM; in the test on HCC-2998 colon it was 7.93 µM and 3.63 µM; with HOP-62 NSCLC it was 3.63 µM and 1.67 µM; with MALME-3M melanoma, 4.7 µM and 3.5 µM; in the test on MCF7 breast, 7.15 µM. Also, the TGI is 3.02 µM and 0.494 µM in the test with RPMI-8226 leukemia; 2.39 µM and 1.01 µM in the test on TK-10 renal; 2.67 µM and 12.6 µM with U251 CNS.
On to `COC1=CC(c2ccc[nH]2)=N/C1=C\c1[nH]c(C)c(C(=O)CCCCCCCCC(=O)O[C@H]2CC[C@H]3C4CCc5cc(O)ccc5C4CC[C@]23C)c1C` (some centres undefined), for which the GI50 is 0.332 µM in the test with COLO 205 colon; 0.461 µM with EKVX NSCLC; 0.623 µM in the test on HCC-2998 colon; 0.483 µM with HOP-62 NSCLC; 2490 nM in the test with MALME-3M melanoma; 370 nM in the test with MCF7 breast. In addition, the GI50 was 0.536 µM in the test on NCI-H460 lung, 1630 nM in the test with RPMI-8226 leukemia, 0.861 µM in the test on TK-10 renal and 0.331 µM with U251 CNS. In addition, the TGI with COLO 205 colon was more than 50 µM; in the test on EKVX NSCLC, more than 50 µM; in the test with HCC-2998 colon, more than 50 µM; in the test with HOP-62 NSCLC, 10.2 µM; in the test on MALME-3M melanoma, more than 36.3 µM; with MCF7 breast it was more than 50 µM. Further, the TGI with NCI-H460 lung, in the test on RPMI-8226 leukemia, with TK-10 renal and in the test with U251 CNS was more than 50 µM throughout.
Take `CC1(C)CC(C)(C)c2cc(NC(=S)Nc3ccc([N+](=O)[O-])cc3)ccc2S1`: the GI50 is 13 µM in the test on COLO 205 colon; 12.7 µM with EKVX NSCLC; 4.42 µM in the test on HCC-2998 colon; 18.3 µM in the test on HOP-62 NSCLC; 2620 nM with MALME-3M melanoma; 29100 nM with MCF7 breast. Also, the GI50 in the test with NCI-H460 lung was 27.6 µM; in the test with RPMI-8226 leukemia it was 31000 nM; in the test with TK-10 renal, 10.3 µM; in the test on U251 CNS, 11.1 µM. The TGI in the test on COLO 205 colon was 59.4 µM; with EKVX NSCLC it was 29.7 µM; in the test with HCC-2998 colon it was 24.6 µM; with HOP-62 NSCLC it was more than 49.5 µM; in the test with MALME-3M melanoma it was 10.1 µM; with MCF7 breast, more than 82.1 µM. The TGI is more than 69.3 µM in the test with NCI-H460 lung, 99.8 µM in the test with RPMI-8226 leukemia, 24.8 µM in the test with TK-10 renal and 29.4 µM in the test on U251 CNS.
For `COC1=CC(=O)O/C1=C(\OC)C1OC1c1ccccc1` (centres undefined), the TGI with COLO 205 colon, in the test on EKVX NSCLC, in the test on HCC-2998 colon, in the test with HOP-62 NSCLC, in the test with MALME-3M melanoma and in the test with MCF7 breast was more than 100 µM in each case. Moreover, the TGI with NCI-H460 lung, in the test on RPMI-8226 leukemia, in the test with TK-10 renal and in the test with U251 CNS was more than 100 µM throughout.
For `O=C(Nc1n[nH]c2cc(-c3cc(F)ccc3F)ccc12)C1CC1`, the GI50 was 13.1 µM with COLO 205 colon; more than 22.3 µM with EKVX NSCLC; 14.4 µM in the test with HCC-2998 colon; 15.2 µM in the test on HOP-62 NSCLC; 14200 nM with MALME-3M melanoma; 7430 nM in the test with MCF7 breast. In addition, the GI50 is 8.81 µM in the test with NCI-H460 lung, 13100 nM in the test on RPMI-8226 leukemia, more than 25 µM in the test with TK-10 renal and 15.3 µM in the test with U251 CNS. Also, the TGI was more than 25 µM in the test with COLO 205 colon; more than 25 µM in the test with EKVX NSCLC; more than 25 µM in the test on HCC-2998 colon; more than 25 µM with HOP-62 NSCLC; more than 25 µM in the test on MALME-3M melanoma; more than 19.8 µM in the test on MCF7 breast. Besides, the TGI in the test on NCI-H460 lung, in the test on RPMI-8226 leukemia, with TK-10 renal and with U251 CNS was more than 25 µM in each case.
Consider `O=S(=O)(NC1=NCCN1C(=S)SN1CCn2c1nsc2=S)c1ccc(Cl)cc1`, for which the GI50 in the test with COLO 205 colon was 4.36 µM; in the test on EKVX NSCLC it was 13.2 µM; in the test with HCC-2998 colon it was 11 µM; in the test on HOP-62 NSCLC, 19.5 µM; in the test with MALME-3M melanoma, 4750 nM; with MCF7 breast, 2780 nM. Also, the GI50 was 10.2 µM in the test on NCI-H460 lung, 4330 nM in the test on RPMI-8226 leukemia, 12.3 µM with TK-10 renal and 10.9 µM with U251 CNS. Moreover, the TGI in the test on COLO 205 colon is 14.8 µM; with EKVX NSCLC it was 30.6 µM; in the test with HCC-2998 colon, 23.6 µM; in the test with HOP-62 NSCLC it was 41 µM; in the test with MALME-3M melanoma, 18.1 µM; in the test on MCF7 breast, 17.1 µM. The TGI with NCI-H460 lung is 38.6 µM; with RPMI-8226 leukemia, more than 100 µM; with TK-10 renal, 25.6 µM; with U251 CNS, 24.4 µM.
As to `CCCC(=O)O[C@]1(C)CC[C@@H]2[C@H]3[C@@H]1[C@@H]1C[C@@](C)(O)[C@H](OC)CC[C@](C)(OC(=O)[C@@H]2C)[C@H]3O1`, the GI50 with COLO 205 colon was 33.7 µM; with EKVX NSCLC it was 47.3 µM; with HCC-2998 colon, 17.5 µM; in the test on HOP-62 NSCLC it was 82.7 µM; with MALME-3M melanoma, 17800 nM; with MCF7 breast, 18500 nM. Also, the GI50 in the test on NCI-H460 lung was 56.3 µM; with RPMI-8226 leukemia, 13800 nM; in the test with TK-10 renal, 28.8 µM; in the test with U251 CNS, 56.9 µM. The TGI in the test with COLO 205 colon was more than 100 µM; in the test with EKVX NSCLC it was more than 100 µM; in the test with HCC-2998 colon, 31.2 µM; in the test with HOP-62 NSCLC, more than 100 µM; in the test with MALME-3M melanoma it was 33.8 µM; in the test on MCF7 breast it was 33.7 µM. In addition, the TGI in the test with NCI-H460 lung is more than 100 µM; in the test with RPMI-8226 leukemia, 26.8 µM; in the test with TK-10 renal, 87.4 µM; in the test with U251 CNS, more than 100 µM.
